Values quoted from earlier work, collected in patent US20240293312A1, “PHARMACEUTICAL COMPOSITIONS OF 3-(4-AMINO-1-OXO-1, 3 DIHYDRO-ISOINDOL-2-YL)-PIPERIDINE-2, 6-DIONE” (priority 2021, published 2024).

For `Nc1cccc2c1CN(C1CCC(=O)NC1=O)C2=O` (stereo not shown) [Lenalidomide, 3-(4-amino-1-oxo-1,3-dihydro-2H-isoindol-2-yl) piperidine-2,6-dione], the “solubility (in words)” value is listed as “soluble in organic solvent/water mixtures, and buffered aqueous solvents”.
